Assay results published in US20140094424A1, “MICROBICIDAL COMPOSITIONS AND METHODS OF PRODUCTION USE THEREOF” (priority 2011, published 2014).

Legend:
Gram positive rods (S) = test: MBC (minimum bactericidal concentration) test in Wash NEXT reagent; assay type: cell-based
Protocol: (§1) The stock organisms were thawed and subbed prior to beginning the MBC test. Molds were subbed to SDA plates one week before, and the bacteria were subbed to TAT agar plates 24 hours prior to the start of the test. All plates were incubated at 32 degrees C.
(§2) Each bacterial organism was inoculated into 40 ml sterile saline in a centrifuge tube to create a density of MacFarland #1. Two serial dilutions of 1:100 were then made, resulting in 10^−2 and 10^−4 concentrations. Each dilution was vortexed before it was sampled, and sterile Eppendorf pipette tips were used to make each transfer. The 10^−4 dilution was spiral plated to yield the initial inoculum concentration.
(§3) MBC trays were set up with the prepared test reagent. Using a Matrix pipettor, 100 μl aliquots of reagent were distributed into the wells, diluting the amount of preservative from 100% to 10% increments, using unpreserved reagent as the diluent. In one row, 100% non-preserved reagent acted as a positive control and served as a benchmark for a full mat of growth. In well #12H, 100 μl unpreserved reagent was pipetted, and this well was not inoculated with organisms, as it served as the negative control. Once all of the trays were prepared, the prepared bacteria/mold suspensions were poured into the MBC inoculating trays. These were placed onto the reagent trays, and 0.01 ml inoculum was introduced into the 100 μl of reagent in each well.
(§4) This was done by dipping a sterile cotton swab into each well, and absorbing all of the liquid in the well. The swab was rolled onto a TAT agar plate ensuring that the entire swab touches the agar. Plates ware incubated at 32 degrees C. for 48 hours to 7 days, depending on the organism. Observations for growth were performed by a scoring matrix using + for a full mat, +/− for some growth, a numerical value for an actual colony count, and—for no growth.
(§5) Below are tables that contain the data obtained in Example 1. The MBC test is scored by (+) indicating a full grown mat of organisms, equivalent to the organisms in the unpreserved reagent. (+/−) indicates there is some kill evident disturbing that mat or bringing the quantities down to an almost countable level. An actual number is the actual number of colonies growing at that concentration of preservative. (−) indicates no growth found. The MBC trays were stored at room temperature for the entire test.
(§6) The materials and methods and analysis of the MBC test were the same as in Example 1.

Pseudomonas putida (K) = test: as above; assay type: cell-based
Protocol: as §1, §2, §3, §4, §5, §6

Cc1cc(NS(=O)(=O)c2ccc(N)cc2)no1 [Sulfamethoxazole, sulfamethoxazole]
MBC test growth score (Gram positive rods (S); 10% preservative, 8 hour): +
MBC test growth score (Gram positive rods (S); 10% preservative, 24 hour): +
MBC test growth score (Gram positive rods (S); 10% preservative, 48 hour): +
MBC test growth score (Gram positive rods (S); 10% preservative, 72 hour): +
MBC test growth score (Gram positive rods (S); 10% preservative, 7 day): +
MBC test growth score (Gram positive rods (S); 10% preservative, 14 day): +
MBC test growth score (Gram positive rods (S); 20% preservative, 8 hour): +
MBC test growth score (Gram positive rods (S); 20% preservative, 24 hour): +
MBC test growth score (Gram positive rods (S); 20% preservative, 48 hour): +
MBC test growth score (Gram positive rods (S); 20% preservative, 72 hour): +
MBC test growth score (Gram positive rods (S); 20% preservative, 7 day): +
MBC test growth score (Gram positive rods (S); 20% preservative, 14 day): +
MBC test growth score (Gram positive rods (S); 30% preservative, 8 hour): +
MBC test growth score (Gram positive rods (S); 30% preservative, 24 hour): +
MBC test growth score (Gram positive rods (S); 30% preservative, 48 hour): +
MBC test growth score (Gram positive rods (S); 30% preservative, 72 hour): +
MBC test growth score (Gram positive rods (S); 30% preservative, 7 day): +
MBC test growth score (Gram positive rods (S); 30% preservative, 14 day): +
MBC test growth score (Gram positive rods (S); 40% preservative, 8 hour): +
MBC test growth score (Gram positive rods (S); 40% preservative, 24 hour): +
MBC test growth score (Gram positive rods (S); 40% preservative, 48 hour): +
MBC test growth score (Gram positive rods (S); 40% preservative, 72 hour): +
MBC test growth score (Gram positive rods (S); 40% preservative, 7 day): +
MBC test growth score (Gram positive rods (S); 40% preservative, 14 day): +
MBC test growth score (Gram positive rods (S); 50% preservative, 8 hour): +
MBC test growth score (Gram positive rods (S); 50% preservative, 24 hour): +
MBC test growth score (Gram positive rods (S); 50% preservative, 48 hour): +
MBC test growth score (Gram positive rods (S); 50% preservative, 72 hour): +
MBC test growth score (Gram positive rods (S); 50% preservative, 7 day): +
MBC test growth score (Gram positive rods (S); 50% preservative, 14 day): +
MBC test growth score (Gram positive rods (S); 60% preservative, 8 hour): +
MBC test growth score (Gram positive rods (S); 60% preservative, 24 hour): +
MBC test growth score (Gram positive rods (S); 60% preservative, 48 hour): +
MBC test growth score (Gram positive rods (S); 60% preservative, 72 hour): +
MBC test growth score (Gram positive rods (S); 60% preservative, 7 day): +
MBC test growth score (Gram positive rods (S); 60% preservative, 14 day): +
MBC test growth score (Gram positive rods (S); 70% preservative, 8 hour): +
MBC test growth score (Gram positive rods (S); 70% preservative, 24 hour): +
MBC test growth score (Gram positive rods (S); 70% preservative, 48 hour): +
MBC test growth score (Gram positive rods (S); 70% preservative, 72 hour): +
MBC test growth score (Gram positive rods (S); 70% preservative, 7 day): +
MBC test growth score (Gram positive rods (S); 70% preservative, 14 day): +
MBC test growth score (Gram positive rods (S); 80% preservative, 8 hour): +
MBC test growth score (Gram positive rods (S); 80% preservative, 24 hour): +
MBC test growth score (Gram positive rods (S); 80% preservative, 48 hour): +
MBC test growth score (Gram positive rods (S); 80% preservative, 72 hour): +
MBC test growth score (Gram positive rods (S); 80% preservative, 7 day): +
MBC test growth score (Gram positive rods (S); 80% preservative, 14 day): +
MBC test growth score (Gram positive rods (S); 90% preservative, 8 hour): +
MBC test growth score (Gram positive rods (S); 90% preservative, 24 hour): +
MBC test growth score (Gram positive rods (S); 90% preservative, 48 hour): +
MBC test growth score (Gram positive rods (S); 90% preservative, 72 hour): +
MBC test growth score (Gram positive rods (S); 90% preservative, 7 day): +
MBC test growth score (Gram positive rods (S); 90% preservative, 14 day): +
MBC test growth score (Gram positive rods (S); 100% preservative, 8 hour): +
MBC test growth score (Gram positive rods (S); 100% preservative, 24 hour): +
MBC test growth score (Gram positive rods (S); 100% preservative, 48 hour): +
MBC test growth score (Gram positive rods (S); 100% preservative, 72 hour): +
MBC test growth score (Gram positive rods (S); 100% preservative, 7 day): +
MBC test growth score (Gram positive rods (S); 100% preservative, 14 day): +
MBC test growth score (Pseudomonas putida (K); 10% preservative, 8 hour): +
MBC test growth score (Pseudomonas putida (K); 10% preservative, 24 hour): 2
MBC test growth score (Pseudomonas putida (K); 10% preservative, 48 hour): +/−
MBC test growth score (Pseudomonas putida (K); 10% preservative, 72 hour): +/−
MBC test growth score (Pseudomonas putida (K); 20% preservative, 8 hour): +
MBC test growth score (Pseudomonas putida (K); 20% preservative, 24 hour): +/−
MBC test growth score (Pseudomonas putida (K); 20% preservative, 48 hour): +/−
MBC test growth score (Pseudomonas putida (K); 20% preservative, 72 hour): −
MBC test growth score (Pseudomonas putida (K); 30% preservative, 8 hour): +
MBC test growth score (Pseudomonas putida (K); 30% preservative, 24 hour): +/−
MBC test growth score (Pseudomonas putida (K); 30% preservative, 48 hour): 22
MBC test growth score (Pseudomonas putida (K); 30% preservative, 72 hour): −
MBC test growth score (Pseudomonas putida (K); 40% preservative, 8 hour): +
MBC test growth score (Pseudomonas putida (K); 40% preservative, 24 hour): +/−
MBC test growth score (Pseudomonas putida (K); 40% preservative, 48 hour): 20
MBC test growth score (Pseudomonas putida (K); 40% preservative, 72 hour): −
MBC test growth score (Pseudomonas putida (K); 50% preservative, 8 hour): +
MBC test growth score (Pseudomonas putida (K); 50% preservative, 24 hour): +/−
MBC test growth score (Pseudomonas putida (K); 50% preservative, 72 hour): −
MBC test growth score (Pseudomonas putida (K); 60% preservative, 8 hour): +
MBC test growth score (Pseudomonas putida (K); 60% preservative, 24 hour): +/−
MBC test growth score (Pseudomonas putida (K); 60% preservative, 48 hour): 18
MBC test growth score (Pseudomonas putida (K); 60% preservative, 72 hour): −
MBC test growth score (Pseudomonas putida (K); 70% preservative, 8 hour): +
MBC test growth score (Pseudomonas putida (K); 70% preservative, 24 hour): +
MBC test growth score (Pseudomonas putida (K); 70% preservative, 48 hour): −
MBC test growth score (Pseudomonas putida (K); 70% preservative, 72 hour): −
MBC test growth score (Pseudomonas putida (K); 80% preservative, 8 hour): +
MBC test growth score (Pseudomonas putida (K); 80% preservative, 24 hour): +
MBC test growth score (Pseudomonas putida (K); 80% preservative, 48 hour): −
MBC test growth score (Pseudomonas putida (K); 80% preservative, 72 hour): −
MBC test growth score (Pseudomonas putida (K); 90% preservative, 8 hour): +
MBC test growth score (Pseudomonas putida (K); 90% preservative, 24 hour): +
MBC test growth score (Pseudomonas putida (K); 90% preservative, 48 hour): −
MBC test growth score (Pseudomonas putida (K); 90% preservative, 72 hour): −
MBC test growth score (Pseudomonas putida (K); 100% preservative, 8 hour): +
MBC test growth score (Pseudomonas putida (K); 100% preservative, 24 hour): +
MBC test growth score (Pseudomonas putida (K); 100% preservative, 48 hour): −
MBC test growth score (Pseudomonas putida (K); 100% preservative, 72 hour): −
